Experiment [1] has as its system Male Balb/c Mice. The experiment is described as follows: Bleed time after tail amputation in mice, GTS-21 (Example 10). Format: in vivo. As to conditions: GTS-21 4 mg/kg IP vs PBS, 1 hour before, anesthetized, 2 mm of tail amputated. How it is done: Male Balb/c mice (around 25 g) were injected (intraperitoneally (IP)) with cholinergic agonist GTS-21 (4 mg/kg in 125 µL PBS) or PBS (vehicle control, 125 µL). 1 hour later, mice were anesthetized with ketamine/xylazine (100 mg/kg/10 mg/kg, intraperitoneally).

Experiment [2] concerns Male Balb/c Mice. Nature of the experiment: Effect of alpha-7 antagonist MLA given before nicotine on bleed time (Example 13). It counts as in vivo. The method, then: Male Balb/c mice (around 25 g) were divided into three groups: A, B and C. Groups A and C were injected with the alpha-7 antagonist methyllycaconitine, (MLA; 4 mg/kg, IP, in 200 µL PBS), group B was injected with PBS (vehicle control, 125 µ1). 15 minutes later, Group A was injected with PBS (vehicle control, 125 µl) and groups B and C were injected with nicotine (0.3 mg/kg in 125 µL PBS). 30 minutes later, mice were anesthetized (ketamine [100 mg/kg, IP] and xylazine [10 mg/kg, IP]). After immersing tails in 37° C. saline for 5 minutes to normalize vasodilatory state, 2 mm of tail was amputated with a scalpel, and returned to the saline bath (modified from Nagashima et al., Journal of Clinical Investigation (109) 101-110, (2002); Snyder et al., Nature Medicine (5), 64-70, (1999).
Once bleeding stopped, animals were euthanized by CO2 asphyxiation. Data were recorded in seconds, and are presented as mean+/− SE. Student's t-test was used for statistical analysis.

“Also recorded” adds a separate entry of the source.

As for `COc1ccc(/C=C2\CCCN=C2c2cccnc2)c(OC)c1` [GTS-21], in the experiment with Male Balb/c Mice [1], the total bleeding time result is given as “significantly reduced the bleed time; also recorded: decrease in bleed time”.

Consider `CCN1C[C@]2(COC(=O)c3ccccc3N3C(=O)C[C@H](C)C3=O)CC[C@H](OC)[C@@]34[C@@H]5C[C@H]6[C@H](OC)[C@@H]5[C@](O)(C[C@@H]6OC)[C@@](O)([C@@H](OC)[C@H]23)[C@@H]14` [MLA, methyllycaconitine], for which the “effect on nicotine induced reduction of bleed time” value in the experiment on Male Balb/c Mice [2] (MLA 4 mg/kg IP 15 minutes before nicotine 0.3 mg/kg) is “inhibited nicotine induced reduction of bleed time”.

Take `CN1CCCC1c1cccnc1` (stereo not drawn) [nicotine]: the total bleeding time entry in the experiment with Male Balb/c Mice [2] (nicotine 0.3 mg/kg after PBS pretreatment, 30 minutes later anesthetized, 2 mm of tail amputated) is given as “reduction in bleed time”.

The values are drawn from patent US10912712B2, “Treatment of bleeding by non-invasive stimulation” (The Feinstein Institutes for Medical Research, priority 2004, dated 2021).
